Laboratory results from patent US20080131534A1, “USE OF A PLANT EXTRACT OR PLANT JUICE” (Melbrosin International Produktions- und Vertriebs GesmbH & …, priority 2006, published 2008).

These compounds were tested against T1, PPAR-gamma (Homo sapiens, UniProt P37231) (assay: Polar Screen PPAR Competitive Assay (fluorescence polarization ligand binding)). Conditions: not given.
T1 construct: purchased Invitrogen
T1 sequence (P37231 238-503 limits assumed): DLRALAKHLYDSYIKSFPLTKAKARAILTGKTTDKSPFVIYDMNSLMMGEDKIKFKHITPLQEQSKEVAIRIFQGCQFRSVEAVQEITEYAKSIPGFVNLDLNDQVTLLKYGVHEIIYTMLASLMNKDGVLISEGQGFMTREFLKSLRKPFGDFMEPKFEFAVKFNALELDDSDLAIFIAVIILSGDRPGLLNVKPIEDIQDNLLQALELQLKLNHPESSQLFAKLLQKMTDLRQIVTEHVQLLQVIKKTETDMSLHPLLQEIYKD

With O=C(/C=C/c1ccccc1)c1ccccc1O [2′-Hydroxychalcone] as the compound, how does the EC50 read?
Its EC50 is 20 µM.

O=C(O)c1cc(O)c(O)c(O)c1 [Gallic acid] was tested. Which EC50 did it give?
Its EC50 is 128 µM.

O=c1c(-c2ccc(O)cc2)coc2cc(O)cc(O)c12 [Genistein] was tested. Which EC50 did it give?
The EC50 was 22 µM.

Which EC50 does the source give for C=CCc1ccc2c(c1)OCO2 [Safrol] here?
The EC50 was 2250 µM.

Same assay, conditions: EC50, Table 1, tested substances

For Cc1ccc(C(C)C)c(O)c1 [Thymol], which EC50 is on record?
Its EC50 is 695 µM.

Same assay, conditions: EC50, Table 3, active substances in Oregano

How did the EC50 turn out when Cc1ccc(C(C)C)c(O)c1 [Thymol] was run?
The EC50 was 695 µM.

Same assay, conditions: Table 1, result in words

Which EC50 does the source give for O=C(/C=C/c1ccccc1)c1ccccc1O [2′-OH-Chalcone] here?
The EC50 was “does not bind”.

Which EC50 does the source give for COc1cc(/C=C/C(=O)CC(=O)/C=C/c2ccc(O)c(OC)c2)ccc1O [Curcumin] here?
Its EC50 is “does not bind”.

With COc1cc(/C=C/C(=O)O)ccc1O [Ferrulic acid] as the compound, how does the EC50 read?
Its EC50 is “does not bind”.

How did the EC50 turn out when O=c1c(O[C@@H]2O[C@H](CO)[C@H](O)[C@H](O)[C@H]2O)c(-c2ccc(O)c(O)c2)oc2cc(O)cc(O)c12 [Hyperoside] was run?
Its EC50 is “does not bind”.

For c1cc2c(cc1[C@H]1OC[C@H]3[C@@H]1CO[C@@H]3c1ccc3c(c1)OCO3)OCO2 [Sesamin], which EC50 is on record?
The EC50 was “does not bind”.

Same assay, conditions: Table 1, result in words; *tested to a concentration of 0.1 M

For CCCCCC(C)=O [2-Heptanon], which EC50 is on record?
Its EC50 is “does not bind*”.

For O=C(O)/C=C/c1ccc(O)c(O)c1 [Caffeic acid], which EC50 is on record?
Its EC50 is “does not bind*”.

With O=c1c(-c2ccc(O)cc2)coc2cc(O[C@@H]3O[C@H](CO)[C@@H](O)[C@H](O)[C@H]3O)ccc12 [Daidzin] as the compound, how does the EC50 read?
The EC50 was “does not bind*”.

C=CCSCC=C [Diallylsulfide] was tested. Which EC50 did it give?
The EC50 was “does not bind*”.

With COc1ccc(-c2cc(=O)c3c(O)cc(O[C@@H]4O[C@H](CO[C@@H]5O[C@@H](C)[C@H](O)[C@@H](O)[C@H]5O)[C@@H](O)[C@H](O)[C@H]4O)cc3o2)cc1O [Diosmin] as the compound, how does the EC50 read?
Its EC50 is “does not bind*”.

Which EC50 does the source give for C[C@]12CC[C@@H]3c4ccc(O)cc4CC[C@H]3[C@@H]1CCC2=O [Estron] here?
Its EC50 is “does not bind*”.

COc1ccc(-c2coc3cc(O)ccc3c2=O)cc1 [Formononetin] was tested. Which EC50 did it give?
The EC50 was “does not bind*”.

For O=c1c(-c2ccc(O)cc2)coc2cc(O[C@@H]3O[C@H](CO)[C@@H](O)[C@H](O)[C@H]3O)cc(O)c12 [Genistin], which EC50 is on record?
Its EC50 is “does not bind*”.

C=CC(C)(O)CCC=C(C)C (stereo not shown) [Linalool] was tested. Which EC50 did it give?
Its EC50 is “does not bind*”.

For C=CC(C)=CCC=C(C)C [Ocimene], which EC50 is on record?
Its EC50 is “does not bind*”.

For COc1ccc(-c2coc3cc(O[C@@H]4O[C@H](CO)[C@@H](O)[C@H](O)[C@H]4O)ccc3c2=O)cc1 [Ononin], which EC50 is on record?
Its EC50 is “does not bind*”.

For Oc1cc(O)c2c(c1)O[C@H](c1ccc(O)c(O)c1)[C@H](O)[C@H]2c1c(O)cc(O)c2c1O[C@H](c1ccc(O)c(O)c1)[C@H](O)C2 [Procyanidin B2], which EC50 is on record?
Its EC50 is “does not bind*”.

Which EC50 does the source give for O=C(O)c1ccc(O)c(O)c1 [Protocatechuic acid] here?
Its EC50 is “does not bind*”.

Which EC50 does the source give for COc1cc(O)c2c(=O)c(-c3ccc(O)cc3)coc2c1 [Prunetin] here?
Its EC50 is “does not bind*”.

O=c1c(-c2ccc(O)cc2)coc2c([C@@H]3O[C@H](CO)[C@@H](O)[C@H](O)[C@H]3O)c(O)ccc12 [Puerarin] was tested. Which EC50 did it give?
Its EC50 is “does not bind*”.

How did the EC50 turn out when COc1ccc(-c2coc3cc(O[C@@H]4O[C@H](CO)[C@@H](O)[C@H](O)[C@H]4O)cc(O)c3c2=O)cc1 [Sissotrin] was run?
Its EC50 is “does not bind*”.

For O=C(O)/C=C/c1ccccc1O [o-Coumaric acid], which EC50 is on record?
Its EC50 is “does not bind*”.

Cc1ccc(C(C)C)cc1 [p-Cymene] was tested. Which EC50 did it give?
The EC50 was “does not bind*”.

C/C1=C\CC/C(C)=C/CC(C)(C)/C=C/C1 [α-Humulene] was tested. Which EC50 did it give?
The EC50 was “does not bind*”.

C=C1CC/C=C(\C)CC[C@@H]2[C@@H]1CC2(C)C [β-Caryophyllene] was tested. Which EC50 did it give?
The EC50 was “does not bind*”.

Same assay, conditions: Table 1, tested substances; read-out: EC50

O=C(/C=C/c1ccccc1O)c1ccccc1 [2-Hydroxychalcone] was tested. Which EC50 did it give?
The EC50 was 2.9 µM.

O=c1c(O)c(-c2ccccc2)oc2ccccc12 [3-Hydroxyflavon] was tested. Which EC50 did it give?
Its EC50 is > 500 µM.

How did the EC50 turn out when O=c1cc(-c2ccc(O)cc2)oc2cc(O)cc(O)c12 [Apigenin] was run?
The EC50 was 104 µM.

COc1ccc(-c2coc3cc(O)cc(O)c3c2=O)cc1 [Biochanin A] was tested. Which EC50 did it give?
The EC50 was 20 µM.

Which EC50 does the source give for O=C(Nc1ccccc1)c1cc([N+](=O)[O-])ccc1Cl [CW9662, 2-Chloro-5-nitrobenanilide, reference compound] here?
The EC50 was 0.0107 µM.

With COc1cc(CNC(=O)CCCC/C=C/C(C)C)ccc1O [Capsaicin] as the compound, how does the EC50 read?
Its EC50 is > 500 µM.

How did the EC50 turn out when O=CC=Cc1ccccc1 [Cinnamaldehyde] was run?
The EC50 was 10.4 µM.

Which EC50 does the source give for O=c1oc2cc(O)ccc2c2oc3cc(O)ccc3c12 [Coumestrol] here?
Its EC50 is 8.5 µM.

For O=c1c(-c2ccc(O)cc2)coc2cc(O)ccc12 [Daidzein], which EC50 is on record?
The EC50 was 470 µM.

For OC[C@H](Cc1cccc(O)c1)[C@H](CO)Cc1cccc(O)c1 [Enterodiol], which EC50 is on record?
The EC50 was > 500 µM.

O=C1OC[C@H](Cc2cccc(O)c2)[C@H]1Cc1cccc(O)c1 [Enterolacton] was tested. Which EC50 did it give?
The EC50 was > 500 µM.

Which EC50 does the source give for Oc1cc(O)c2c(c1)O[C@H](c1ccc(O)c(O)c1)[C@H](O)C2 [Epicatechin] here?
The EC50 was > 500 µM.

How did the EC50 turn out when Oc1ccc([C@H]2COc3cc(O)ccc3C2)cc1 [Equol] was run?
Its EC50 is 60 µM.

With O=C1C[C@@H](c2ccc(O)c(O)c2)Oc2cc(O)cc(O)c21 [Eriodictyol] as the compound, how does the EC50 read?
Its EC50 is 66 µM.

With CCOC(=O)C=Cc1ccccc1 [Ethylcinnamate] as the compound, how does the EC50 read?
Its EC50 is 2700 µM.

Which EC50 does the source give for C=CCc1ccc(O)c(OC)c1 [Eugenol] here?
The EC50 was 420 µM.

How did the EC50 turn out when O=c1c(O)c(-c2ccccc2)oc2cc(O)cc(O)c12 [Galangin] was run?
Its EC50 is 143 µM.

With COc1ccc([C@@H]2CC(=O)c3c(O)cc(O[C@@H]4O[C@H](CO[C@@H]5O[C@@H](C)[C@H](O)[C@@H](O)[C@H]5O)[C@@H](O)[C@H](O)[C@H]4O)cc3O2)cc1O [Hesperidin] as the compound, how does the EC50 read?
Its EC50 is > 500 µM.

For OCc1c[nH]c2ccccc12 [Indol-3-Carbinol], which EC50 is on record?
The EC50 was > 500 µM.

With O=c1c(OC2OC(CO)C(O)C(O)C2O)c(-c2ccc(O)c(O)c2)oc2cc(O)cc(O)c12 (stereo not shown) [Isoquercetrin] as the compound, how does the EC50 read?
The EC50 was 52 µM.

O=c1c(O)c(-c2ccc(O)cc2)oc2cc(O)cc(O)c12 [Kaempferol] was tested. Which EC50 did it give?
Its EC50 is 467 µM.

Which EC50 does the source give for O=c1cc(-c2ccc(O)c(O)c2)oc2cc(O)cc(O)c12 [Luteolin] here?
Its EC50 is 4 µM.

O=c1c(O)c(-c2cc(O)c(O)c(O)c2)oc2cc(O)cc(O)c12 [Myricetin] was tested. Which EC50 did it give?
The EC50 was 53 µM.

With CC(C(=O)c1ccc(O)cc1O)c1ccc(O)cc1 (stereo not shown) [ODMA, O-Desmethyl-angolenain] as the compound, how does the EC50 read?
Its EC50 is 67 µM.

O=C(CCc1ccc(O)cc1)c1c(O)cc(O)cc1O [Phloretin] was tested. Which EC50 did it give?
The EC50 was 20 µM.

How did the EC50 turn out when O=C(CCc1ccc(O)cc1)c1c(O)cc(O)cc1O[C@@H]1O[C@H](CO)[C@@H](O)[C@H](O)[C@H]1O [Phloridzin] was run?
Its EC50 is > 500 µM.

O=c1c(O)c(-c2ccc(O)c(O)c2)oc2cc(O)cc(O)c12 [Quercetin] was tested. Which EC50 did it give?
Its EC50 is 2.6 µM.

For O=C(/C=C/c1ccc(O)c(O)c1)O[C@H](Cc1ccc(O)c(O)c1)C(=O)O [Rosmarinic acid], which EC50 is on record?
Its EC50 is 7.8 µM.

With O=C(O)/C=C/c1ccc(O)cc1 [p-Coumaric acid] as the compound, how does the EC50 read?
The EC50 was > 500 µM.

Same assay, conditions: Table 3, active substances in Oregano; read-out: EC50

For O=c1cc(-c2ccc(O)cc2)oc2cc(OC3O[C@H](CO)[C@@H](O)[C@H](O)[C@H]3O)cc(O)c12 (stereo partly shown) [Apigenin-7Glycoside], which EC50 is on record?
The EC50 was > 500 µM.

With O=c1cc(-c2ccc(O)cc2)oc2cc(O)cc(O)c12 [Apigenin] as the compound, how does the EC50 read?
Its EC50 is 104 µM.

COc1ccc(-c2coc3cc(O)cc(O)c3c2=O)cc1 [Biochanin A] was tested. Which EC50 did it give?
Its EC50 is 20 µM.

With O=C1C[C@@H](c2ccc(O)c(O)c2)Oc2cc(O)cc(O)c21 [Eriodictyol] as the compound, how does the EC50 read?
Its EC50 is 66 µM.

With O=c1c(OC2OC(CO)C(O)C(O)C2O)c(-c2ccc(O)c(O)c2)oc2cc(O)cc(O)c12 (stereo not shown) [Isoquercetrin] as the compound, how does the EC50 read?
The EC50 was 53 µM.

Which EC50 does the source give for O=c1c(O)c(-c2ccc(O)cc2)oc2cc(O)cc(O)c12 [Kaempferol] here?
Its EC50 is 467 µM.

Which EC50 does the source give for O=c1cc(-c2ccc(O)c(O)c2)oc2cc(O)cc(O)c12 [Luteolin] here?
The EC50 was 4 µM.

O=C1C[C@@H](c2ccc(O)cc2)Oc2cc(O)cc(O)c21 [Narigenin] was tested. Which EC50 did it give?
Its EC50 is 81 µM.

O=c1c(O)c(-c2ccc(O)c(O)c2)oc2cc(O)cc(O)c12 [Quercetin] was tested. Which EC50 did it give?
The EC50 was 2.6 µM.

For O=C(/C=C/c1ccc(O)c(O)c1)O[C@H](Cc1ccc(O)c(O)c1)C(=O)O [Rosmarinic acid], which EC50 is on record?
The EC50 was 7.8 µM.

With O=C(/C=C/c1ccc(O)c2c1[C@H](C(=O)O[C@H](Cc1ccc(O)c(O)c1)C(=O)O)[C@@H](c1ccc(O)c(O)c1)O2)O[C@H](Cc1ccc(O)c(O)c1)C(=O)O [Salvianolic acid B] as the compound, how does the EC50 read?
The EC50 was 292 µM.

O=C1c2c(O)cc(O)cc2O[C@H](c2ccc(O)c(O)c2)[C@H]1O [Taxifolin] was tested. Which EC50 did it give?
The EC50 was 275 µM.

With C[C@H]1[C@H](C)CC[C@]2(C(=O)O)CC[C@]3(C)C(=CC[C@@H]4[C@@]5(C)CC[C@H](O)C(C)(C)[C@@H]5CC[C@]43C)[C@H]12 [Ursolsäure] as the compound, how does the EC50 read?
The EC50 was > 500 µM.

For COc1cc(C(=O)O)ccc1O [Vanillic acid], which EC50 is on record?
The EC50 was > 500 µM.

For O=c1cc(-c2ccc(O)cc2)oc2c([C@@H]3O[C@H](CO)[C@@H](O)[C@H](O)[C@H]3O)c(O)cc(O)c12 [Vitexin], which EC50 is on record?
The EC50 was 156 µM.

O=C(O)/C=C/c1ccc(O)cc1 [p-Coumaric acid] was tested. Which EC50 did it give?
The EC50 was > 500 µM.
